Results published in patent US20060069132A1, “Azolecarboxamide herbicides” (priority 2004, published 2006).

How the values were obtained:
barnyardgrass [1] = assay: Test A pre-/postemergence herbicide test; assay type: in vivo, Echinochloa crus-galli
Procedure, shortened: (§1)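 Plants are held in greenhouse about ten days after treatment, then compared with untreated controls and scored 0 (no effect) to 100 (complete control). Preemergence dosing is a directed soil spray on sown sandy loam; postemergence dosing is spray to runoff at 2–10 cm height.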

large crabgrass [2] = assay: Test A pre-/postemergence herbicide test; assay type: in vivo, Digitaria sanguinalis
Procedure, shortened: as §1

giant foxtail [3] = assay: Test A pre-/postemergence herbicide test; assay type: in vivo, Setaria faberi
Procedure, shortened: as §1

morningglory [4] = assay: Test A pre-/postemergence herbicide test; assay type: in vivo, Ipomoea spp.
Procedure, shortened: as §1

redroot pigweed = assay: Test A pre-/postemergence herbicide test; assay type: in vivo, Amaranthus retroflexus
Procedure, shortened: as §1

velvetleaf [5] = assay: Test A pre-/postemergence herbicide test; assay type: in vivo, Abutilon theophrasti
Procedure, shortened: as §1

barnyardgrass [6] = assay: Test B pre-/postemergence herbicide test; assay type: in vivo, Echinochloa crus-galli; conditions: for Barnyardgrass plant response rating: postemergence
Procedure, shortened: (§2)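 Flooded paddy rice and barnyardgrass were treated at the 2-leaf stage; upland plantings received compound either on sown seed or on 1- to 4-leaf seedlings. All were kept 13–15 days in a greenhouse and scored visually, 0–100, relative to untreated plants.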

Surinam grass = assay: Test B pre-/postemergence herbicide test; assay type: in vivo, Urochloa decumbens; conditions: for Surinam Grass plant response rating: postemergence
Procedure, shortened: (§3)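 Test chemicals in a non-phytotoxic solvent mixture with surfactant were applied preemergence to seeded species and postemergence to plants 2-18 cm tall (1- to 4-leaf stage); rice and barnyardgrass were also tested in a flooded paddy at the 2-leaf stage. Visual rating versus controls after 13-15 days in greenhouse, scale 0 (no effect) to 100 (complete control).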

cocklebur = assay: Test B pre-/postemergence herbicide test; assay type: in vivo, Xanthium strumarium; conditions: for Cocklebur plant response rating: postemergence
Procedure, shortened: as §2

corn = assay: Test B pre-/postemergence herbicide test; assay type: in vivo, Zea mays; conditions: for Corn plant response rating: postemergence
Procedure, shortened: as §3

large crabgrass [7] = assay: Test B pre-/postemergence herbicide test; assay type: in vivo, Digitaria sanguinalis; conditions: for Crabgrass, Large plant response rating: postemergence
Procedure, shortened: as §3

giant foxtail [8] = assay: Test B pre-/postemergence herbicide test; assay type: in vivo, Setaria faberi; conditions: for Foxtail, Giant plant response rating: postemergence
Procedure, shortened: as §3

lambsquarters = assay: Test B pre-/postemergence herbicide test; assay type: in vivo, Chenopodium album; conditions: for Lambsquarters plant response rating: postemergence
Procedure, shortened: as §3

morningglory [9] = assay: Test B pre-/postemergence herbicide test; assay type: in vivo, Ipomoea coccinea; conditions: for Morningglory plant response rating: postemergence
Procedure, shortened: as §2

pigweed = assay: Test B pre-/postemergence herbicide test; assay type: in vivo, Amaranthus retroflexus; conditions: for Pigweed plant response rating: postemergence
Procedure, shortened: as §3

rice [10] = assay: Test B pre-/postemergence herbicide test; assay type: in vivo, Oryza sativa; conditions: 0 = no effect, 100 = complete control, preemergence
Procedure, shortened: as §3

velvetleaf [11] = assay: Test B pre-/postemergence herbicide test; assay type: in vivo, Abutilon theophrasti; conditions: for Velvetleaf plant response rating: postemergence
Procedure, shortened: as §3

blackgrass = assay: Test B postemergence herbicide test; assay type: in vivo, Alopecurus myosuroides; conditions: postemergence
Procedure, shortened: (§4)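 After treating 2-leaf paddy plants or 2–18 cm postemergence plants (1 to 4 leaves) with formulated chemical, researchers kept them in a greenhouse for 13–15 days. Effects were judged visually versus controls: 0 indicates none, 100 total control.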

wheat = assay: Test B postemergence herbicide test; assay type: in vivo, Triticum aestivum; design: key to Wheat plant response rating: 0 = no effect, 100 = complete control; conditions: postemergence
Procedure, shortened: (§5)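 Treated at 2-leaf (paddy) or 1–4-leaf, 2–18 cm (postemergence); greenhouse 13–15 d; visual score vs control, 0 none to 100 complete control; dash = not tested.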

wild oat = assay: Test B postemergence herbicide test; assay type: in vivo, Avena fatua; conditions: postemergence
Procedure, shortened: as §5

rice [12] = assay: Test B flooded paddy test; assay type: in vivo, Oryza sativa; conditions: 1000 g ai/ha, scale 0 to 100 (0 no effect, 100 complete control)
Procedure, shortened: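 Paddy species grown to the 2-leaf stage under flooding; blackgrass sprayed postemergence at 2–18 cm (1- to 4-leaf stage). Plants kept in a greenhouse for 13 to 15 days, then visually rated against controls on 0 (no effect) to 100 (complete control).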

[13] = test system: small flower umbrella sedge; assay: Test B flooded paddy test; assay type: in vivo, Cyperus difformis; conditions: 1000 g ai/ha, scale 0 to 100 (0 no effect, 100 complete control)
Procedure, shortened: as §4

ducksalad = assay: Test B flooded paddy test; assay type: in vivo, Heteranthera limosa; conditions: 1000 g ai/ha, scale 0 to 100 (0 no effect, 100 complete control)
Procedure, shortened: as §4

barnyardgrass [14] = assay: Test B flooded paddy test; assay type: in vivo, Echinochloa crus-galli; conditions: 1000 g ai/ha, scale 0 to 100 (0 no effect, 100 complete control)
Procedure, shortened: as §4

[15] = Postemergence, 500 g ai/ha, 0 to 100 scale, 0 no effect, 100 complete control
[16] = Postemergence, 2000 g ai/ha, 0 to 100 scale, 0 no effect, 100 complete control
[17] = Preemergence, 2000 g ai/ha, visual rating, 0 to 100 scale (0 no effect, 100 complete control)
[18] = preemergence, 500 g ai/ha, visual injury, 0 to 100 scale (0 no effect, 100 complete control)
[19] = 125 g ai/ha, 0 = no effect, 100 = complete control, preemergence
[20] = 125 g ai/ha, visual rating, scale 0 (no effect) to 100 (complete control)
[21] = 500 g ai/ha, visual rating, 0 = no effect, 100 = complete control, preemergence
[22] = 500 g ai/ha, scale 0 to 100, 0 is no effect, 100 is complete control

SMILES: CCNC(=O)c1cncc(NC(=O)c2cc(C(C)(C)C)nn2CC)n1 [Compound 288]
- Barnyardgrass plant response rating (barnyardgrass [1]; [15]): 5
- Plant response rating, Barnyardgrass (barnyardgrass [1]; [16]): 65
- Barnyardgrass plant response rating (barnyardgrass [1]; [17]): 75
- Barnyardgrass plant response rating (barnyardgrass [1]; [18]): 20
- Crabgrass, Large plant response rating (large crabgrass [2]; [15]): 0
- Plant response rating, Crabgrass, Large (large crabgrass [2]; [16]): 15
- Crabgrass, Large plant response rating (large crabgrass [2]; [17]): 10
- Crabgrass, Large plant response rating (large crabgrass [2]; [18]): 0
- Foxtail, Giant plant response rating (giant foxtail [3]; [15]): 0
- Plant response rating, Foxtail, Giant (giant foxtail [3]; [16]): 10
- Foxtail, Giant plant response rating (giant foxtail [3]; [17]): 75
- Foxtail, Giant plant response rating (giant foxtail [3]; [18]): 15
- Morningglory plant response rating (morningglory [4]; [15]): 20
- Plant response rating, Morningglory (morningglory [4]; [16]): 20
- Morningglory plant response rating (morningglory [4]; [17]): 30
- Morningglory plant response rating (morningglory [4]; [18]): 5
- Pigweed plant response rating (redroot pigweed; [15]): 20
- Plant response rating, Pigweed (redroot pigweed; [16]): 40
- Pigweed plant response rating (redroot pigweed; [17]): 70
- Pigweed plant response rating (redroot pigweed; [18]): 25
- Velvetleaf plant response rating (velvetleaf [5]; [15]): 20
- Plant response rating, Velvetleaf (velvetleaf [5]; [16]): 20
- Velvetleaf plant response rating (velvetleaf [5]; [17]): 40
- Velvetleaf plant response rating (velvetleaf [5]; [18]): 10
- Barnyardgrass plant response rating (0 to 100 scale) (barnyardgrass [6]; [19]): 0
- Barnyardgrass plant response rating (barnyardgrass [6]; [20]): 0
- Plant response rating, Barnyardgrass (barnyardgrass [6]; [21]): 70
- Barnyardgrass plant response rating (barnyardgrass [6]; [22]): 0
- Surinam Grass plant response rating (0 to 100 scale) (Surinam grass; [19]): 0
- Surinam Grass plant response rating (Surinam grass; [20]): 0
- Plant response rating, Surinam Grass (Surinam grass; [21]): 0
- Surinam Grass plant response rating (Surinam grass; [22]): 0
- Cocklebur plant response rating (0 to 100 scale) (cocklebur; [19]): 0
- Cocklebur plant response rating (cocklebur; [20]): 0
- Plant response rating, Cocklebur (cocklebur; [21]): 0
- Cocklebur plant response rating (cocklebur; [22]): 0
- Corn plant response rating (0 to 100 scale) (corn; [19]): 0
- Corn plant response rating (corn; [20]): 0
- Plant response rating, Corn (corn; [21]): 0
- Corn plant response rating (corn; [22]): 0
- Crabgrass, Large plant response rating (0 to 100 scale) (large crabgrass [7]; [19]): 0
- Crabgrass, Large plant response rating (large crabgrass [7]; [20]): 0
- Plant response rating, Crabgrass, Large (large crabgrass [7]; [21]): 0
- Crabgrass, Large plant response rating (large crabgrass [7]; [22]): 0
- Foxtail, Giant plant response rating (0 to 100 scale) (giant foxtail [8]; [19]): 0
- Foxtail, Giant plant response rating (giant foxtail [8]; [20]): 0
- Plant response rating, Foxtail, Giant (giant foxtail [8]; [21]): 10
- Foxtail, Giant plant response rating (giant foxtail [8]; [22]): 30
- Lambsquarters plant response rating (0 to 100 scale) (lambsquarters; [19]): 0
- Lambsquarters plant response rating (lambsquarters; [20]): 0
- Plant response rating, Lambsquarters (lambsquarters; [21]): 90
- Lambsquarters plant response rating (lambsquarters; [22]): 30
- Morningglory plant response rating (0 to 100 scale) (morningglory [9]; [19]): 0
- Morningglory plant response rating (morningglory [9]; [20]): 0
- Plant response rating, Morningglory (morningglory [9]; [21]): 0
- Morningglory plant response rating (morningglory [9]; [22]): 0
- Pigweed plant response rating (0 to 100 scale) (pigweed; [19]): 0
- Pigweed plant response rating (pigweed; [20]): 10
- Plant response rating, Pigweed (pigweed; [21]): 90
- Pigweed plant response rating (pigweed; [22]): 20
- Rice plant response rating (0 to 100 scale) (rice [10]; 125 g ai/ha): 0
- Plant response rating, Rice (rice [10]; 500 g ai/ha, visual rating): 70
- Velvetleaf plant response rating (velvetleaf [11]; [20]): 10
- Plant response rating, Velvetleaf (velvetleaf [11]; [21]): 0
- Velvetleaf plant response rating (velvetleaf [11]; [22]): 20
- Blackgrass plant response rating (blackgrass; [20]): 20
- Blackgrass plant response rating (blackgrass; [22]): 20
- Wheat plant response rating (wheat; [20]): 20
- Wheat plant response rating (wheat; [22]): 30
- Oat, Wild plant response rating (wild oat; [20]): 20
- Oat, Wild plant response rating (wild oat; [22]): 40
- Rice plant response rating (rice [12]): 0
- Sedge, Umbrella plant response rating [13]: 60
- Ducksalad plant response rating (ducksalad): 0
- Barnyardgrass plant response rating (barnyardgrass [14]): 0
